Laboratory results: paper PMC12136037, “Type II kinase inhibitors that target Parkinson’s disease–associated LRRK2” (Science Advances, 2025)

Experiments:
Assay in all cases: 33PanQinase kinome-wide selectivity profile (Reaction Biology)
Type in all cases: biochemical
[1] = target: T1, 350 wild-type kinases (Homo sapiens, UniProt O00311); conditions: kinase CDC7/DBF4, ATP 0,1 µM, singlicate
T1 construct: purchased Reaction Biology (assay service)
Procedure: (§1) Compound RN341 was tested at two concentrations of 1 and 10 μM against a panel of 350 wild-type kinases in the ^33PanQinase assay. The assay was performed by Reaction Biology (www.reactionbiology.com/services/kinase-assays/kinase-panel-screening/).

[2] = target: T2, 350 wild-type kinases (Homo sapiens, UniProt O14757); conditions: kinase CHK1, ATP 1 µM, singlicate
T2 construct: purchased Reaction Biology (assay service)
Procedure: as §1

[3] = target: T3, 350 wild-type kinases (Homo sapiens, UniProt O60285); conditions: kinase ARK5, ATP 3 µM, singlicate
T3 construct: purchased Reaction Biology (assay service)
Procedure: as §1

[4] = target: T4, 350 wild-type kinases (Homo sapiens, UniProt P07333); conditions: kinase CSF1R, ATP 0,3 µM, singlicate
T4 construct: purchased Reaction Biology (assay service)
Procedure: as §1

[5] = target: T5, 350 wild-type kinases (Homo sapiens, UniProt P10398, Y301D/Y302D); conditions: kinase ARAF YDYD (constitutively active variant), ATP 1 µM, singlicate
T5 construct: purchased Reaction Biology (assay service)
Procedure: as §1

[6] = target: T6, 350 wild-type kinases (Homo sapiens, UniProt P27037); conditions: kinase ACVR2A, ATP 3 µM, singlicate
T6 construct: purchased Reaction Biology (assay service)
Procedure: as §1

[7] = target: T7, 350 wild-type kinases (Homo sapiens, UniProt P30530); conditions: kinase AXL, ATP 0,3 µM, singlicate
T7 construct: purchased Reaction Biology (assay service)
Procedure: as §1

[8] = target: T8, 350 wild-type kinases (Homo sapiens, UniProt P78527); conditions: kinase DNAPK, ATP 1 µM, singlicate
T8 construct: purchased Reaction Biology (assay service)
Procedure: as §1

[9] = target: T9, 350 wild-type kinases (Homo sapiens, UniProt Q06187); conditions: kinase BTK, ATP 3 µM, singlicate
T9 construct: purchased Reaction Biology (assay service)
Procedure: as §1

[10] = target: T10, 350 wild-type kinases (Homo sapiens, UniProt Q07002); conditions: kinase CDK18/CycY, ATP 1 µM, singlicate
T10 construct: purchased Reaction Biology (assay service)
Procedure: as §1

[11] = target: T11, 350 wild-type kinases (Homo sapiens, UniProt Q07912); conditions: kinase ACK1, ATP 1 µM, singlicate
T11 construct: purchased Reaction Biology (assay service)
Procedure: as §1

[12] = target: T12, 350 wild-type kinases (Homo sapiens, UniProt Q13557); conditions: kinase CAMK2D, ATP 1 µM, singlicate
T12 construct: purchased Reaction Biology (assay service)
Procedure: as §1

[13] = target: T13, 350 wild-type kinases (Homo sapiens, UniProt Q13882); conditions: kinase BRK, ATP 3 µM, singlicate
T13 construct: purchased Reaction Biology (assay service)
Procedure: as §1

[14] = target: T14, 350 wild-type kinases (Homo sapiens, UniProt Q14004); conditions: kinase CDK13/CycK, ATP 0,1 µM, singlicate
T14 construct: purchased Reaction Biology (assay service)
Procedure: as §1

[15] = target: T15, 350 wild-type kinases (Homo sapiens, UniProt Q15131); conditions: kinase CDK10/CycQ, ATP 3 µM, singlicate
T15 construct: purchased Reaction Biology (assay service)
Procedure: as §1

[16] = target: T16, 350 wild-type kinases (Homo sapiens, UniProt Q16566); conditions: kinase CAMK4, ATP 1 µM, singlicate
T16 construct: purchased Reaction Biology (assay service)
Procedure: as §1

[17] = target: T17, 350 wild-type kinases (Homo sapiens, UniProt Q8IWQ3); conditions: kinase BRSK2, ATP 1 µM, singlicate
T17 construct: purchased Reaction Biology (assay service)
Procedure: as §1

[18] = target: T18, 350 wild-type kinases (Homo sapiens, UniProt Q8N5S9); conditions: kinase CAMKK1, ATP 3 µM, singlicate
T18 construct: purchased Reaction Biology (assay service)
Procedure: as §1

[19] = target: T19, 350 wild-type kinases (Homo sapiens, UniProt Q99683); conditions: kinase ASK1, ATP 3 µM, singlicate
T19 construct: purchased Reaction Biology (assay service)
Procedure: as §1

[20] = target: T20, 350 wild-type kinases (Homo sapiens, UniProt Q9BWU1); conditions: kinase CDK19/CycC, ATP 3 µM, singlicate
T20 construct: purchased Reaction Biology (assay service)
Procedure: as §1

[21] = target: T21, 350 wild-type kinases (Homo sapiens, UniProt Q9NYV4); conditions: kinase CDK12/CycK, ATP 0,3 µM, singlicate
T21 construct: purchased Reaction Biology (assay service)
Procedure: as §1

[22] = target: T22, 350 wild-type kinases (Homo sapiens, UniProt Q9UIK4); conditions: kinase DAPK2, ATP 0,1 µM, singlicate
T22 construct: purchased Reaction Biology (assay service)
Procedure: as §1

[23] = target: T23, 350 wild-type kinases (Homo sapiens, UniProt Q9UM73); conditions: kinase ALK, ATP 0,3 µM, singlicate
T23 construct: purchased Reaction Biology (assay service)
Procedure: as §1

T20 sequence (Q9BWU1 whole entry): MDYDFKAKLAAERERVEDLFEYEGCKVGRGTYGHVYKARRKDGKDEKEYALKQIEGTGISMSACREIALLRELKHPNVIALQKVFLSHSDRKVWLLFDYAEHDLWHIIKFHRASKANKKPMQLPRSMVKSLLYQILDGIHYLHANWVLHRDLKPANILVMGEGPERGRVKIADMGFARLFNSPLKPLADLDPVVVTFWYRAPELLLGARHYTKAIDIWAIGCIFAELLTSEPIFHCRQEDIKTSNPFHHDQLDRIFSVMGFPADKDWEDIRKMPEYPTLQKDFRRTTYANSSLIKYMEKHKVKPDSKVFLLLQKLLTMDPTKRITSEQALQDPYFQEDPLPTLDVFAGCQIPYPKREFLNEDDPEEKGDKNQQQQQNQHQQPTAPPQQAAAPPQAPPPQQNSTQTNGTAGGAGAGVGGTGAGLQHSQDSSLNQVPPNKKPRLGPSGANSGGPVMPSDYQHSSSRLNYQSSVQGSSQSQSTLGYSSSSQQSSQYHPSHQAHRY
T21 sequence (Q9NYV4 whole entry): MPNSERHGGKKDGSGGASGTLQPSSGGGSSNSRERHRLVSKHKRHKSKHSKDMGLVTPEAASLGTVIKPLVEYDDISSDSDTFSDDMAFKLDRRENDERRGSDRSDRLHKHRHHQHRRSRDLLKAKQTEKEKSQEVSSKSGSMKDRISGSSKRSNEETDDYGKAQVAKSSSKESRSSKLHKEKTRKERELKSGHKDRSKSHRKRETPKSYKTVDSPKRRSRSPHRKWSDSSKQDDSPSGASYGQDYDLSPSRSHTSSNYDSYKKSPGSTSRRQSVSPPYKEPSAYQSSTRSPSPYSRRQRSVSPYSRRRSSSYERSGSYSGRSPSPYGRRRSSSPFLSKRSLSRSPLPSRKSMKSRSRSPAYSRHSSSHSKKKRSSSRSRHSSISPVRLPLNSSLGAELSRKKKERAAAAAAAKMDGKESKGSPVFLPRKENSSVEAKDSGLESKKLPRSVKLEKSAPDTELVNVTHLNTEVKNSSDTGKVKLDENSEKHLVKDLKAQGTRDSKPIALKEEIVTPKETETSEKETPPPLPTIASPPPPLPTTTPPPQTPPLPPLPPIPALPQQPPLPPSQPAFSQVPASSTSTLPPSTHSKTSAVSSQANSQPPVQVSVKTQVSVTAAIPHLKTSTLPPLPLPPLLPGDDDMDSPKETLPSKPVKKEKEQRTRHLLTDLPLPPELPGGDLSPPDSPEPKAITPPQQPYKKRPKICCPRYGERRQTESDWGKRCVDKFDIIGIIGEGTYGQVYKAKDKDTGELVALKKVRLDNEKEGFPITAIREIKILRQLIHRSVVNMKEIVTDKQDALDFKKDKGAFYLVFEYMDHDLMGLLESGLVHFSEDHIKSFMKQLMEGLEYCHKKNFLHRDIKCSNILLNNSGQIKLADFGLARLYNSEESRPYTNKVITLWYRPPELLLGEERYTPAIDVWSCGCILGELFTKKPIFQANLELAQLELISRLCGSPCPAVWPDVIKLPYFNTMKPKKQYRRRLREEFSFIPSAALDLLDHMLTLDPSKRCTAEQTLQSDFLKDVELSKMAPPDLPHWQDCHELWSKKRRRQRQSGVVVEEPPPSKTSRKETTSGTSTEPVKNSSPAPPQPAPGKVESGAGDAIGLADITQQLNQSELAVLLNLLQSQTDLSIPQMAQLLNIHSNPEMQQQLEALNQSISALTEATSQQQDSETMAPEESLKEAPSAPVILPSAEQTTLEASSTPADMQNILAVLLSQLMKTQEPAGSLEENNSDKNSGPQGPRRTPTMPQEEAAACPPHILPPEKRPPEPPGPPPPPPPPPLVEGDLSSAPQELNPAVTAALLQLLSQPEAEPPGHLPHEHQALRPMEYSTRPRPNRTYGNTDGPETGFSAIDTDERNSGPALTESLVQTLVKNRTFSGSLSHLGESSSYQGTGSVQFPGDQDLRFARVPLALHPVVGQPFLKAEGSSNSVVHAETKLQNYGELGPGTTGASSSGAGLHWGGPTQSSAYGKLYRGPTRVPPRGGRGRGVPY
T19 sequence (Q99683 whole entry): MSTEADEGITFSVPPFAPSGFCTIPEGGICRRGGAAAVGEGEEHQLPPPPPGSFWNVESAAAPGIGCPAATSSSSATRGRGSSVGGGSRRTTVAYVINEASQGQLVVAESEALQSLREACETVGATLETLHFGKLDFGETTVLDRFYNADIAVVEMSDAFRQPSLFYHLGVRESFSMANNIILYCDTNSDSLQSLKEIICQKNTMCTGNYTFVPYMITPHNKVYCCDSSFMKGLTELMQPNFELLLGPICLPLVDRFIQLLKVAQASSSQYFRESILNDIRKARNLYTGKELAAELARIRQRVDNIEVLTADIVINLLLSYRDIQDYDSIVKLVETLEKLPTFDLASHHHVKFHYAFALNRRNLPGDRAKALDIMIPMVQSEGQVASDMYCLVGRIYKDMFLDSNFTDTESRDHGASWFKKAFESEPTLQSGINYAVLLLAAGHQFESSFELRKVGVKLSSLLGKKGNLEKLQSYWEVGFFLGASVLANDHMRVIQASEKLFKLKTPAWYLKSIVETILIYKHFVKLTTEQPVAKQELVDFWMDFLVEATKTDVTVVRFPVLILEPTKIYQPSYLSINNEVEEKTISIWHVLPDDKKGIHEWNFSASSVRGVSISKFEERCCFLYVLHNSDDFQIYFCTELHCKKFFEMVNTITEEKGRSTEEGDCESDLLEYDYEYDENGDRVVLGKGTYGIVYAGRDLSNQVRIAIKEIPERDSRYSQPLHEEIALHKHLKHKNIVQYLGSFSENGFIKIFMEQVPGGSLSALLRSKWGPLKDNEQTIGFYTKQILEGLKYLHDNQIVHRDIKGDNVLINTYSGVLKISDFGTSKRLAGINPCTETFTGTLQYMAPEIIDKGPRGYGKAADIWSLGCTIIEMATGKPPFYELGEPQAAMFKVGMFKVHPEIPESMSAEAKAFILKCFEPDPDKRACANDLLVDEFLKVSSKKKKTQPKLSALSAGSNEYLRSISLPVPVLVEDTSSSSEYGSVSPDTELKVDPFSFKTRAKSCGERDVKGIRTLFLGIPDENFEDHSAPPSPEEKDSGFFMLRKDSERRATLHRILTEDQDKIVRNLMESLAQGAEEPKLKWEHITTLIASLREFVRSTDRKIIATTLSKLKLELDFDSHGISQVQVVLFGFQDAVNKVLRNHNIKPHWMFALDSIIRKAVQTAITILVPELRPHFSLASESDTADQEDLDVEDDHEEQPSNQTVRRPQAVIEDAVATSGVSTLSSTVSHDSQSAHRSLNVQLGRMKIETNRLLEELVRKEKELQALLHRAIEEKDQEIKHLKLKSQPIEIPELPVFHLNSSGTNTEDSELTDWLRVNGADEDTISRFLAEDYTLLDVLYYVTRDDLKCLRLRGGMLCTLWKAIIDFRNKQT
T14 sequence (Q14004 whole entry): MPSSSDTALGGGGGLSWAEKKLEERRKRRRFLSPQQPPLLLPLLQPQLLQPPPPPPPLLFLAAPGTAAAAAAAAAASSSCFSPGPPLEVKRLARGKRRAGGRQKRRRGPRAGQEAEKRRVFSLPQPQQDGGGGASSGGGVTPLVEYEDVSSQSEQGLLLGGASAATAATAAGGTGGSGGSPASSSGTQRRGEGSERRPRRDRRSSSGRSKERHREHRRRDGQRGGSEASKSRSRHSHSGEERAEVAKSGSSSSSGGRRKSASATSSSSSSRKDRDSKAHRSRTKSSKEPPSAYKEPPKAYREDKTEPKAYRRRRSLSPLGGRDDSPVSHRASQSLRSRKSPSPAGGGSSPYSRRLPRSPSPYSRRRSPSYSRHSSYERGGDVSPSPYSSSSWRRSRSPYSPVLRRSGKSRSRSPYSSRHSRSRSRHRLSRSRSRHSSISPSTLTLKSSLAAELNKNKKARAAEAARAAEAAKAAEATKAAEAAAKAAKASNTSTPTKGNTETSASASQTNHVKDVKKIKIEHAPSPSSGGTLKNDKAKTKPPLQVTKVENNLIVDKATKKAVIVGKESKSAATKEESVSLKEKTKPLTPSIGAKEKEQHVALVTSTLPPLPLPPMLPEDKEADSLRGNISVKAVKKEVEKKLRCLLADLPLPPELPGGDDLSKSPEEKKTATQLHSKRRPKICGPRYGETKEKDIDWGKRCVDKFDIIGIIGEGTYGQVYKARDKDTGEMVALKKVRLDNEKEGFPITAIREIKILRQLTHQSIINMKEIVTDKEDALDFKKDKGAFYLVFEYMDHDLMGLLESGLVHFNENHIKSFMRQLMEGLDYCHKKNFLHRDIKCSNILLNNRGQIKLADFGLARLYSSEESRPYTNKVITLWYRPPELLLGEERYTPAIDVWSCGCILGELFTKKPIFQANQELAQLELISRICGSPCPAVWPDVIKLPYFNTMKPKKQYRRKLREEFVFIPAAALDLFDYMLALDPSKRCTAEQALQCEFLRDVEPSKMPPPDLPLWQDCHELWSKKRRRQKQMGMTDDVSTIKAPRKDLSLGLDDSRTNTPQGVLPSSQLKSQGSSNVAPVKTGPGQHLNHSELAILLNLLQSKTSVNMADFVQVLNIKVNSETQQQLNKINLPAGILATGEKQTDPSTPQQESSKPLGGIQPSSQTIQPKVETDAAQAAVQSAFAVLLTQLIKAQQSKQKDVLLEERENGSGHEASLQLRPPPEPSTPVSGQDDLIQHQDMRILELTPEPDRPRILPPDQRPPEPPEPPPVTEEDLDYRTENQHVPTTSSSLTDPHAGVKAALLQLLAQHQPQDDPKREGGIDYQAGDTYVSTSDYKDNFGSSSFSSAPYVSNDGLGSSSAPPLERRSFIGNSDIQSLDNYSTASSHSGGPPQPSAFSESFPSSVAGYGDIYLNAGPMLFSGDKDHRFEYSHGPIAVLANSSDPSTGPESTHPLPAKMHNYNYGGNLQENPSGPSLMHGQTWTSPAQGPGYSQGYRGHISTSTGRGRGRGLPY

SMILES: CCSc1nc(NC)c2c(-c3cccc(NC(=O)Nc4cc(C(C)(C)C)nn4-c4ccc(C)cc4)c3)c[nH]c2n1 [Compound 32]
- Residual activity (% of control), CDC7/DBF4 ([1]; Assay Conc. 1.0E-05 M): 50 % of control
- Residual activity (% of control), CDC7/DBF4 ([1]; Assay Conc. 1.0E-06 M): 89 % of control
- Residual activity (% of control), CHK1 ([2]; Assay Conc. 1.0E-05 M): 72 % of control
- Residual activity (% of control), CHK1 ([2]; Assay Conc. 1.0E-06 M): 110 % of control
- Residual activity (% of control), ARK5 ([3]; Assay Conc. 1.0E-05 M): 99 % of control
- Residual activity (% of control), ARK5 ([3]; Assay Conc. 1.0E-06 M): 105 % of control
- Residual activity (% of control), CSF1R ([4]; Assay Conc. 1.0E-05 M): 71 % of control
- Residual activity (% of control), CSF1R ([4]; Assay Conc. 1.0E-06 M): 100 % of control
- Residual activity (% of control), ARAF YDYD ([5]; Assay Conc. 1.0E-05 M): 89 % of control
- Residual activity (% of control), ARAF YDYD ([5]; Assay Conc. 1.0E-06 M): 116 % of control
- Residual activity (% of control), ACVR2A ([6]; Assay Conc. 1.0E-05 M): 92 % of control
- Residual activity (% of control), ACVR2A ([6]; Assay Conc. 1.0E-06 M): 102 % of control
- Residual activity (% of control), AXL ([7]; Assay Conc. 1.0E-05 M): 59 % of control
- Residual activity (% of control), AXL ([7]; Assay Conc. 1.0E-06 M): 94 % of control
- Residual activity (% of control), DNAPK ([8]; Assay Conc. 1.0E-05 M): 82 % of control
- Residual activity (% of control), DNAPK ([8]; Assay Conc. 1.0E-06 M): 99 % of control
- Residual activity (% of control), BTK ([9]; Assay Conc. 1.0E-05 M): 37 % of control
- Residual activity (% of control), BTK ([9]; Assay Conc. 1.0E-06 M): 80 % of control
- Residual activity (% of control), CDK18/CycY ([10]; Assay Conc. 1.0E-05 M): 73 % of control
- Residual activity (% of control), CDK18/CycY ([10]; Assay Conc. 1.0E-06 M): 110 % of control
- Residual activity (% of control), ACK1 ([11]; Assay Conc. 1.0E-05 M): 74 % of control
- Residual activity (% of control), ACK1 ([11]; Assay Conc. 1.0E-06 M): 90 % of control
- Residual activity (% of control), CAMK2D ([12]; Assay Conc. 1.0E-05 M): 67 % of control
- Residual activity (% of control), CAMK2D ([12]; Assay Conc. 1.0E-06 M): 104 % of control
- Residual activity (% of control), BRK ([13]; Assay Conc. 1.0E-05 M): 79 % of control
- Residual activity (% of control), BRK ([13]; Assay Conc. 1.0E-06 M): 109 % of control
- Residual activity (% of control), CDK13/CycK ([14]; Assay Conc. 1.0E-05 M): 71 % of control
- Residual activity (% of control), CDK13/CycK ([14]; Assay Conc. 1.0E-06 M): 83 % of control
- Residual activity (% of control), CDK10/CycQ ([15]; Assay Conc. 1.0E-05 M): 71 % of control
- Residual activity (% of control), CDK10/CycQ ([15]; Assay Conc. 1.0E-06 M): 98 % of control
- Residual activity (% of control), CAMK4 ([16]; Assay Conc. 1.0E-05 M): 100 % of control
- Residual activity (% of control), CAMK4 ([16]; Assay Conc. 1.0E-06 M): 113 % of control
- Residual activity (% of control), BRSK2 ([17]; Assay Conc. 1.0E-05 M): 84 % of control
- Residual activity (% of control), BRSK2 ([17]; Assay Conc. 1.0E-06 M): 103 % of control
- Residual activity (% of control), CAMKK1 ([18]; Assay Conc. 1.0E-05 M): 122 % of control
- Residual activity (% of control), CAMKK1 ([18]; Assay Conc. 1.0E-06 M): 114 % of control
- Residual activity (% of control), ASK1 ([19]; Assay Conc. 1.0E-05 M): 71 % of control
- Residual activity (% of control), ASK1 ([19]; Assay Conc. 1.0E-06 M): 103 % of control
- Residual activity (% of control), CDK19/CycC ([20]; Assay Conc. 1.0E-05 M): 54 % of control
- Residual activity (% of control), CDK19/CycC ([20]; Assay Conc. 1.0E-06 M): 97 % of control
- Residual activity (% of control), CDK12/CycK ([21]; Assay Conc. 1.0E-05 M): 87 % of control
- Residual activity (% of control), CDK12/CycK ([21]; Assay Conc. 1.0E-06 M): 99 % of control
- Residual activity (% of control), DAPK2 ([22]; Assay Conc. 1.0E-05 M): 88 % of control
- Residual activity (% of control), DAPK2 ([22]; Assay Conc. 1.0E-06 M): 93 % of control
- Residual activity (% of control), ALK ([23]; Assay Conc. 1.0E-05 M): 23 % of control
- Residual activity (% of control), ALK ([23]; Assay Conc. 1.0E-06 M): 64 % of control
